Structures can show the parent of a compound that is named as a salt. Where two headings read alike, the source gives them in different places.
How the values were obtained:
sigma 2 binding site = molecular target: T1, sigma 2 binding site (Rattus norvegicus, UniProt Q5U3Y7); assay: Sigma 2 selective receptor binding inhibition assay with [^3H]-di-o-tolylguanidine; conditions: for S2/S1 Ratio: ratio of Sigma 2 Ki to Sigma 1 Ki
T1 sequence (Q5U3Y7 1-176): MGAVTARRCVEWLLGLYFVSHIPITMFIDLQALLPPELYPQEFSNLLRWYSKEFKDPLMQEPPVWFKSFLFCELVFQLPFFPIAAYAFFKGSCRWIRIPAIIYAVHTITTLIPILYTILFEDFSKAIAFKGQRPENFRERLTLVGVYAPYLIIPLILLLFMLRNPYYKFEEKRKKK

Dopamine D2 = molecular target: T2, Dopamine D2 (Rattus norvegicus, UniProt P61169); assay: Binding to dopaminergic receptors using rat striata (method of Terai et al.)
T2 construct: dopaminergic receptors was also measured using rat striata; from tissue; host or cells: rat striata
T2 sequence (P61169 whole entry): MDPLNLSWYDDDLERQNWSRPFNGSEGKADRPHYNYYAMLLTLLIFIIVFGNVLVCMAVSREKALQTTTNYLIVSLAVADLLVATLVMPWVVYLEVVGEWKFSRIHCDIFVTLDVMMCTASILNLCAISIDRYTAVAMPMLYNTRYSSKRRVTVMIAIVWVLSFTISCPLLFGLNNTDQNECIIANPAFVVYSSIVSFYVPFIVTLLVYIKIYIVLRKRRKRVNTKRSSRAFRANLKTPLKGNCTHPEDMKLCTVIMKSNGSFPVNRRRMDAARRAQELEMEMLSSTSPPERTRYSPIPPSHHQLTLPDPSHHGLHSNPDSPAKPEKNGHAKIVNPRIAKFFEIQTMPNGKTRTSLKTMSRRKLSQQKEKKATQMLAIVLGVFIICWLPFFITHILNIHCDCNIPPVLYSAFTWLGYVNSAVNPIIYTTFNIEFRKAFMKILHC
Protocol: The binding of these compounds to dopaminergic receptors was also measured using rat striata according to the method described by Terai et al. (M. Terai, et al., Eur. J. Pharmacol. 1989, 173, 177).

sigma 1 binding site [1] = molecular target: T3, sigma 1 binding site (Cavia porcellus, UniProt Q60492); assay: biochemical
T3 sequence (Q60492 whole entry): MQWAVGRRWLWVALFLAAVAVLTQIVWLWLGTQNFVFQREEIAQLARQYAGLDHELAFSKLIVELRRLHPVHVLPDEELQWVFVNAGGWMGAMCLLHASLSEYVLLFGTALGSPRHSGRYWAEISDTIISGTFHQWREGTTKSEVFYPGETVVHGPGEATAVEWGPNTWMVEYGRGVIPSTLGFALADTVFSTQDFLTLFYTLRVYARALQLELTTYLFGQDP

sigma 1 binding site [2] = molecular target: T3, sigma 1 binding site

Compound	Ki (sigma 2 binding site)	S2/S1 Ratio (sigma 2 binding site)	Ki (Dopamine D2)	Ki (sigma 1 binding site [1])	Ki (sigma 2 binding site; read-out: Sigma 2 Ki(nM ± SEM), [^3H]-DTG 1 nM, rat liver crude P2 membrane fraction, 500 nM pentazocine, 2 hours at 25°C)	Ki (sigma 1 binding site [2])
O=S1(=O)c2ccccc2Nc2ccccc2N1CC1CCN(CC(O)c2ccc(F)cc2F)CC1 (racemic) [Example 3, (R,S)-1-(2,4-Difluorophenyl)-2-[4-(6,11-dihydrodibenzo[c,f][1,2,5]thiadiazepin-6-yl-methyl)piperidin-1-yl]ethanol S,S-dioxide hydrochloride]	16 nM	0.06	700 nM	280 nM		
Cc1ccccc1C(O)CN1CCC(CN2c3ccccc3Nc3ccccc3S2(=O)=O)CC1 (racemic) [Example 5, (R,S)-1-(2-Methylphenyl)-2-[4-(6,11-dihydrodibenzo[c,f][1,2,5]thiadiazepin-6-ylmethyl)piperidin-1-yl]ethanol S,S-dioxide hydrochloride]	13 nM	0.2	79 nM	71 nM		
CN1c2ccccc2N(CC2CCN(CC(O)C34CC5CC(CC(C5)C3)C4)CC2)S(=O)(=O)c2ccccc21 (racemic) [Example 6, (R,S)-1-(1-Adamantyl)-2-[4-(11-methyl-6,11-dihydrodibenzo[c,f][1,2,5]thiadiazepin-6-ylmethyl)piperidin-1-yl]ethanol S,S-dioxide hydrochloride]	2.7 nM	0.001	170 nM	2100 nM		
CN1c2ccccc2N(CC2CCN(CC(O)c3ccc(F)cc3)CC2)S(=O)(=O)c2ccccc21 (racemic) [Example 7, (R,S)-1-(4-Fluorophenyl)-2-[4-(11-methyl-6,11-dihydrodibenzo[c,f][1,2,5]thiadiazepin-6-ylmethyl)piperidin-1-yl]ethanol S,S-dioxide hydrochloride]	4 nM	0.007	320 nM	540 nM		
O=S1(=O)c2ccccc2Nc2ccc(Cl)cc2N1CC1CCN(CC(O)C23CC4CC(CC(C4)C2)C3)CC1 (racemic) [Example 8, (R,S)-1-(1-Adamantyl)-2-[4-(8-chloro-6,11-dihydrodibenzo[c,f][1,2,5]thiadiazepin-6-ylmethyl)piperidin-1-yl]ethanol S,S-dioxide hydrochloride]	16 nM	0.03	410 nM	630 nM		
O=S1(=O)c2ccccc2Oc2ccccc2N1CC1CCN(CC(O)c2ccc(Cl)cc2)CC1 (racemic) [Example 11, (R,S)-1-(4-Chlorophenyl)-2-[4-(6H-dibenzo[b,f][1,4,5]oxathiazepin-6-ylmethyl)piperidin-1-yl]ethanol S,S-dioxide hydrochloride]	2.3 nM	0.05	200 nM	43 nM		
COc1ccc(C(O)CN2CCC(CN3c4ccccc4Oc4ccccc4S3(=O)=O)CC2)cc1 (racemic) [Example 12, (R,S)-1-(4-Methoxyphenyl)-2-[4-(6H-dibenzo[b,f][1,4,5]oxathiazepin-6-ylmethyl)piperidin-1-yl]ethanol S,S-dioxide hydrochloride]	7.1 nM	0.09	280 nM	78 nM		
Cc1ccc(C(O)CN2CCC(CN3c4ccccc4Oc4ccccc4S3(=O)=O)CC2)cc1 (racemic) [Example 13, (R,S)-1-(4-Methylphenyl)-2-[4-(6H-dibenzo[b,f][1,4,5]oxathiazepin-6-ylmethyl)piperidin-1-yl]ethanol S,S-dioxide hydrochloride]	1.6 nM	0.02	180 nM	89 nM		
O=S1(=O)c2cc(Cl)ccc2Oc2ccccc2N1CC1CCN(CC(O)C23CC4CC(CC(C4)C2)C3)CC1 (racemic) [Example 14, (R,S)-1-(1-Adamantyl)-2-[4-(3-chloro-6H-dibenzo[b,f][1,4,5]oxathiazepin-6-ylmethyl)piperidin-1-yl]ethanol S,S-dioxide hydrochloride]	3.1 nM	0.008	120 nM	380 nM		
O=S1(=O)c2cc(Cl)ccc2Oc2ccccc2N1CC1CCN(CC(O)c2ccccc2)CC1 (racemic) [Example 15, (R,S)-1-Phenyl-2-[4-(3-chloro-6H-dibenzo[b,f][1,4,5]oxathiazepin-6-yl-methyl)piperidin-1-yl]ethanol S,S-dioxide hydrochloride]	1.3 nM	0.01	180 nM	110 nM		
O=S1(=O)c2cc(Cl)ccc2Oc2ccccc2N1CC1CCN(CC(O)c2ccc(F)cc2)CC1 (racemic) [Example 16, (R,S)-1-(4-Fluorophenyl)-2-[4-(3-chloro-6H-dibenzo[b,f][1,4,5]oxathiazepin-6-ylmethyl)piperidin-1-yl]ethanol S,S-dioxide hydrochloride]	1.1 nM	0.01	210 nM	85 nM		
O=S1(=O)c2cc(Cl)ccc2Oc2ccccc2N1CC1CCN(CC(O)c2ccc3ccccc3c2)CC1 (racemic) [Example 17, (R,S)-1-(2-Naphthyl)-2-[4-(3-chloro-6H-dibenzo[[b,f][1,4,5]oxathiazepin-6-ylmethyl)piperidin-1-yl]ethanol S,S-dioxide hydrochloride]	4.2 nM	0.008	350 nM	510 nM		
O=S1(=O)c2cc(Cl)ccc2Oc2ccccc2N1CC1CCN(CC(O)c2ccc(C(F)(F)F)cc2)CC1 (racemic) [Example 18, (R,S)-1-(4-Trifluoromethylphenyl)-2-[4-(3-chloro-6H-dibenzo[b,f][1,4,5]oxathiazepin-6-ylmethyl)piperidin-1-yl]ethanol S,S-dioxide hydrochloride]	3.2 nM	0.003	350 nM	1100 nM		
O=S1(=O)c2cc(Cl)ccc2Oc2ccccc2N1CC1CCN(CC(O)c2ccc(OC(F)(F)F)cc2)CC1 (racemic) [Example 19, (R,S)-1-(4-Trifluoromethoxyphenyl)-2-[4-(3-chloro-6H-dibenzo[b,f][1,4,5]oxathiazepin-6-ylmethyl)piperidin-1-yl]ethanol S,S-dioxide hydrochloride]	8.4 nM	0.007	270 nM	1200 nM		
COc1ccc2c(c1)N(CC1CCN(CC(O)C34CC5CC(CC(C5)C3)C4)CC1)S(=O)(=O)c1cc(Cl)ccc1O2 (racemic) [Example 20, hydrochloride]	10 nM	0.003	790 nM	3500 nM		
COc1ccc2c(c1)N(CC1CCN(CC(O)c3ccc(F)cc3)CC1)S(=O)(=O)c1cc(Cl)ccc1O2 (racemic) [Example 21, (R,S)-1-(4-Fluorophenyl)-2-[4-(3-chloro-8-methoxy-6H-dibenzo[b,f][1,4,5]oxathiazepin-6-ylmethyl)piperidin-1-yl]ethanol S,S-dioxide hydrochloride]	9 nM	0.02	820 nM	420 nM		
COc1ccc2c(c1)N(CC1CCN(CC(O)c3ccc(F)cc3)CC1)S(=O)(=O)c1ccccc1O2 (racemic) [Example 22, (R,S)-1-(4-Fluorophenyl)-2-[4-(8-methoxy-6H-dibenzo[b,f][1,4,5]oxathiazepin-6-ylmethyl)piperidin-1-yl]ethanol S,S-dioxide hydrochloride]	3.7 nM	0.05	870 nM	70 nM		
CN(CCCCN1c2ccccc2Oc2ccc(Cl)cc2S1(=O)=O)CC(O)C12CC3CC(CC(C3)C1)C2 (racemic) [Example 23, (R,S)-1-(1-Adamantyl)-2-[N-methyl-N-[4-(3-chloro-6H-dibenzo[b,f][1,4,5]oxathiazepin-6-yl)butyl]amino]ethanol S,S-dioxide hydrochloride]	35 nM	0.02	1100 nM	1600 nM		
CN(CCCCN1c2ccccc2Oc2ccc(Cl)cc2S1(=O)=O)CC(O)c1ccc(F)cc1 (racemic) [Example 24, (R,S)-1-(4-Fluorophenyl)-2-[N-methyl-N-[4-(3-chloro-6H-dibenzo[b,f][1,4,5]oxathiazepin-6-yl)butyl]amino]ethanol S,S-dioxide hydrochloride]	19 nM	0.1	800 nM	140 nM		
O=C(CN1CCC(CN2c3ccccc3Nc3ccccc3S2(=O)=O)CC1)C12CC3CC(CC(C3)C1)C2 [Example 1, 6-[[1-[2-(1-Adamantyl)-2-oxoethyl]-4-piperidinyl]methyl]-6,11-dihydrodibenzo[c,f][1,2,5]thiadiazepine 5,5-dioxide·hydrochloride]	5 nM	0.03	> 1000 nM	150 nM		
O=C(O)/C=C/C(=O)O.O=S1(=O)c2ccccc2Nc2ccccc2N1CC1CCN(C[C@H](O)C23CC4CC(CC(C4)C2)C3)CC1.O=S1(=O)c2ccccc2Nc2ccccc2N1CC1CCN(C[C@H](O)C23CC4CC(CC(C4)C2)C3)CC1 [Example 2, (R,S)-1-(1-Adamantyl)-2-[4-(6,11-dihydrodibenzo[c,f][1,2,5]thiadiazepin-6-ylmethyl)piperidin-1-yl]ethanol S,S-dioxide hemifumarate]		0.01	450 nM		4.1 nM	320 nM
